# Source: patent publication US12678433B2, “Compounds for treatment of hemolysis-and inflammasome-associated diseases” (New York Blood Center, Inc., priority 2020, dated 2026)
# Assays:
# Bach2 = Bach2 levels in human B cells; type: cell-based; conditions: in the presence of heme
# HO-1 = HO-1 expression in stimulated B cells; type: cell-based, human; conditions: stimulated B cells treated with heme 2.5 or 5 μM
# Description: HO-1 is a key enzyme for heme degradation with multiple biologic activities attributed to its enzymatic byproducts. We analyzed HO-1 expression levels in human B cells before and after stimulation with our polyclonal B cell activation cocktail. […] We also found higher HO-1 levels in DOCK8^hi plasma cells (FIG. 8B).
# [1] = tested on: DOCK8/STAT3 signaling pathway; experiment: Protein phosphorylation analysis by intracellular flow cytometry in stimulated B cells; type: cell-based, human; conditions: heme 10 μM
# Method: Protein phosphorylation analysis: B cells were short-term (maximum overnight) stimulated using the same B cell activation cocktail as above in the absence or presence of hemin (10 μM) after which B cells were fixed with the same volume pre-warmed Phosflow Fix buffer I (BD Bioscience) for 10 min at 37° C. After that, cells were washed twice with MACS buffer (400×g, 4° C., 5 min) followed by addition of 0.4 ml Perm buffer Ill (pre-chilled in −20° C., BD Bioscience) for 30 min on ice. After two washes with MACS buffer, samples were stained with staining buffer (anti-Pyk2(pY402), SYK(pY319), SRC(pY418), and STAT3(pY705), 100 fold diluted with MACS buffer) at 4° C. for 45 min, washed and analyzed by flow cytometry.
# It has been shown that plasma free-heme can directly bind to DOCK8 protein and inhibit monocyte/macrophage phagocytosis through the DOCK8-Cdc42 signaling pathway. DOCK8/STAT3 signaling pathway activation, leading to phosphorylation of Pky2, SYK, SRC, and STAT3, has also been reported to be critical for B cell activation, although the effect of heme on this activation pathway was not examined. To test whether DOCK8/STAT3 signaling is inhibited by cell-free heme during B cell activation, we analyzed the phosphorylation of Pyk2, SYK, SRC, and STAT3 following short-term stimulation in the presence or absence of heme (10 μM) by intracellular flow cytometric analysis. […]
# [2] = tested on: splenic B cells from C57BL/6J mice; experiment: Mouse B cell differentiation in vitro; type: cell-based; conditions: 7 days, hemin 2.5 or 5 μM, different doses of quinine
compound,measurement,setting,value
"C=CC1=C(C)c2cc3[n-]c(cc4[n-]c(cc5nc(cc1n2)C(C)=C5C=C)c(C)c4CCC(=O)O)c(CCC(=O)O)c3C.[Fe+2] [heme, iron(III) complex of protoporphyrin IX]",Bach2 levels,Bach2,no significant change
same,HO-1 expression,HO-1,further induced
same,p-STAT3,[1]; overnight samples,inhibitory effect
same,levels of phosphorylated (p)-Pyk2/SYK/SRC/STAT3,[1]; short-term stimulation (15 min),significant reduction
same,mouse plasma cell differentiation,[2],did not inhibit
